In the supplement of paper PMC10307832:

Tests used:
Assay in all cases: relative viability (nuclei count vs DMSO), 5 days (fraction); higher = more cells survive
[1] = compound: C1COCCN1C2=NC(=NC3=C2OC4=C3C=CC=N4)C5=CC(=CC=C5)NC(=O)C6=CN=C(C=C6)N + NC(=O)Nc1cc(-c2cccc(F)c2)sc1C(=O)N[C@H]1CCCNC1 [AZD7762] (partner 0.2 µM)
How it was run: (§1)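 Relative viability divides the nuclei count in treated wells by that in vehicle wells. Lung cancer cell lines were seeded in 1536-well plates, dosed by pin tool the next day, and fixed and stained after 5 days in one step with final 0.05% Triton X-100, 1% formaldehyde and 1 ug/ml Hoechst. Dosing was a single drug or a fixed anchor-drug dose plus five library-drug doses (not always all listed) in √10 steps, and values are medians of duplicate plates imaged at 4×.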

[2] = compound: C1COCCN1C2=NC(=NC3=C2OC4=C3C=CC=N4)C5=CC(=CC=C5)NC(=O)C6=CN=C(C=C6)N + O=C(CCCCCCC(=O)Nc1ccccc1)NO [Vorinostat] (partner 1 µM)
How it was run: as §1

SGI-1776 + Bortezomib = compound: CN1CCC(CNc2ccc3ncc(-c4cccc(OC(F)(F)F)c4)n3n2)CC1 [SGI-1776] + CC(C)C[C@H](NC(=O)[C@H](Cc1ccccc1)NC(=O)c1cnccn1)B(O)O [Bortezomib] (partner 0.002 µM)
How it was run: as §1

SGI-1776 + Alpelisib = compound: CN1CCC(CNc2ccc3ncc(-c4cccc(OC(F)(F)F)c4)n3n2)CC1 [SGI-1776] + Cc1nc(NC(=O)N2CCC[C@H]2C(N)=O)sc1-c1ccnc(C(C)(C)C(F)(F)F)c1 [Alpelisib] (partner 2 µM)
How it was run: as §1

Cell Line | relative viability ([1]; first compound 0.02 µM) | relative viability ([1]; first compound 0.06325 µM) | relative viability ([1]; first compound 0.2 µM) | relative viability ([1]; first compound 0.6325 µM) | relative viability ([1]; first compound 2 µM) | relative viability ([2]; first compound 0.02 µM) | relative viability ([2]; first compound 0.06325 µM) | relative viability ([2]; first compound 0.2 µM) | relative viability ([2]; first compound 0.6325 µM) | relative viability ([2]; first compound 2 µM) | relative viability (SGI-1776 + Bortezomib; first compound 0.08 µM) | relative viability (SGI-1776 + Bortezomib; first compound 0.8 µM) | relative viability (SGI-1776 + Bortezomib; first compound 2.53 µM) | relative viability (SGI-1776 + Bortezomib; first compound 8 µM) | relative viability (SGI-1776 + Alpelisib; first compound 0.08 µM) | relative viability (SGI-1776 + Alpelisib; first compound 0.8 µM) | relative viability (SGI-1776 + Alpelisib; first compound 2.53 µM) | relative viability (SGI-1776 + Alpelisib; first compound 8 µM)
201T | 0.655 | 0.626 | 0.603 | 0.509 | 0.534 | 0.964 | 1.03 | 0.931 | 0.94 | 0.769 | 1.09 | 1.08 | 1.11 | 0.986 | 1.02 | 1.03 | 1.08 | 0.999
A549 |  |  |  |  |  |  |  |  |  |  |  |  |  |  | 0.787 | 0.701 | 0.852 | 0.394
A-427 | 0.788 | 0.746 | 0.673 | 0.655 | 0.689 | 0.831 | 0.904 | 0.855 | 0.838 | 0.798 | 1.04 | 1.03 | 0.931 | 0.749 | 1.16 | 1.14 | 1.12 | 1.02
ABC-1 | 0.793 | 0.638 | 0.608 | 1.03 | 0.684 | 1.1 | 0.976 | 0.81 | 1.22 | 0.789 | 0.299 | 0.323 | 0.364 | 0.241 | 1.12 | 0.977 | 1.06 | 0.948
BEN | 0.726 | 0.636 | 0.66 | 0.621 | 0.657 | 0.545 | 0.556 | 0.589 | 0.619 | 0.448 | 0.909 | 0.918 | 0.754 | 0.624 | 0.957 | 1.01 | 0.896 | 0.699
CAL-12T | 0.632 | 0.617 | 0.632 | 0.673 | 0.49 | 0.789 | 1 | 0.769 | 0.601 | 0.431 | 1.35 | 0.982 | 0.918 | 0.867 | 1.23 | 1.37 | 1.66 | 1.08
COR-L23 |  |  |  |  |  | 0.517 | 0.525 | 0.458 | 0.403 | 0.381 | 1.13 | 0.937 | 0.971 | 0.846 | 0.935 | 0.697 | 0.743 | 0.521
COR-L 105 |  |  |  |  |  | 0.787 | 0.839 | 0.701 | 0.768 | 0.603 | 0.929 | 0.833 | 0.587 | 0.282 | 1.13 | 1.05 | 1.03 | 0.759
Calu-6 |  |  |  |  |  |  |  |  |  |  | 0.954 | 1.06 | 0.954 | 0.658 | 1.01 | 0.955 | 1.23 | 0.628
ChaGo-K-1 | 0.892 | 0.93 | 0.84 | 0.886 | 0.635 | 0.746 | 0.829 | 0.73 | 0.67 | 0.515 | 0.982 | 1.22 | 0.644 | 0.785 |  |  |  | 
EBC-1 |  |  |  |  |  |  |  |  |  |  | 0.6 | 0.548 | 0.514 | 0.304 | 0.888 | 0.78 | 0.903 | 0.434
EKVX | 0.9 | 0.869 | 0.747 | 0.709 | 0.578 | 0.698 | 0.794 | 0.678 | 0.644 | 0.556 | 0.98 | 1.05 | 1.14 | 0.972 | 0.885 | 0.933 | 0.869 | 0.72
EMC-BAC-2 | 1.2 | 1.11 | 1.14 | 1.01 | 1.01 | 0.533 | 0.376 | 0.329 | 0.413 | 0.419 | 1.06 | 1.01 | 1.1 | 1.04 | 0.741 | 0.703 | 0.802 | 0.723
EPLC-272H | 0.217 |  | 0.251 | 0.23 | 0.19 | 0.339 | 0.487 | 0.286 | 0.429 | 0.53 | 0.939 | 1.06 | 0.927 | 0.739 | 0.943 | 0.952 | 1.16 | 0.804
H3255 | 0.923 | 0.959 | 0.856 | 0.859 | 0.7 | 0.814 | 0.744 | 0.788 | 0.781 | 0.698 | 0.963 | 0.75 | 0.606 | 0.33 | 0.65 | 0.747 | 0.611 | 0.38
HARA | 0.382 | 0.41 | 0.305 | 0.403 | 0.359 | 0.463 | 0.597 | 0.51 | 0.431 | 0.361 | 1.2 | 1.21 | 1.01 | 1.05 | 1.01 | 0.935 | 0.803 | 0.678
IA-LM |  |  |  |  |  | 0.855 | 1.03 | 1.08 | 0.44 | 0.401 | 0.844 | 0.736 | 0.918 | 0.877 | 0.883 | 0.977 | 0.764 | 0.874
LK-2 | 0.427 | 0.406 | 0.378 | 0.416 | 0.221 | 0.125 | 0.317 | 0.247 | 0.273 | 0.257 |  |  |  |  | 0.93 | 1.06 | 0.829 | 0.793
